Assay results as given in publication PMC7098970, “Neurosteroids as Selective Inhibitors of Glycine Receptor Activity: Structure-Activity Relationship Study on Endogenous Androstanes and Androstenes” (Frontiers in Molecular Neuroscience, 2020).
“Also recorded” adds a separate entry of the source. Read-outs that look alike come from different tables or passages of the source.

Assays:
[1] = system: glycine receptor (GlyR); experiment: Glycine-induced chloride current (IGly), whole-cell patch-clamp in isolated pyramidal neurons of the rat hippocampus; type: cell-based; conditions: for τdes/τdes control of IGly: 0.1 μM of steroid; for τdes/τdes control of IGly / Ipeak/Ipeak control of IGly: mean ± SEM, normalized; for Ipeak/Ipeak control of IGly: 10 μM of steroid; for Ipeak max (maximum inhibition attainable) of IGly / Ipeak Hill coefficient of IGly: peak amplitude
Description: (§1) All experiments were conducted per the requirements of the Ministry of Public Health of the Russian Federation and were consistent with the EU directive for Use of Experimental Animals of the European Community. […] The cells were isolated from transverse hippocampal slices as described in detail elsewhere ([Vorobjev, 1991]). Briefly, the slices (200–500 μm) of Wistar rats (11–14 days of age) hippocampus or cerebellum were incubated at room temperature for at least 2 h in a solution containing the following components (in mM): 124 NaCl, 3 KCl, 2 CaCl2, 2 MgSO4, 25 NaHCO3, 1.3 NaH2PO4, 10 D-glucose, pH 7.4. The saline was continuously stirred and bubbled with carbogen (95% 0_2 + 5% CO2). Single pyramidal neurons from the hippocampal CA3 area or Purkinje cells from sagittal slices of the cerebellum were isolated by a vibrating fused glass pipette with a spherical tip.
(§2) Isolated neurons were patch clamped and then lifted into the outflow of the control bath solution. […] The substances were applied through glass capillary, 0.1 mm in diameter, which could be rapidly displaced laterally ([Vorobjev et al., 1996]). A fast perfusion technique allows a complete exchange of external solution surrounding a neuron within 20 ms. […] Transmembrane currents were recorded using a conventional patch-clamp technique in the whole-cell configuration. […] The solution in the recording pipette contained the following (in mM): 40 CsF, 100 CsCl, 0.5 CaCl2, 5 EGTA, 3 MgCl2, 4 NaATP, 5 HEPES, pH 7.3. The composition of the extracellular solution was as follows (in mM): 140 NaCl, 3 KCl, 3 CaCl2, 3 MgCl2, 10 D-glucose, 10 HEPES hemisodium, and pH 7.4. Recording of the currents was performed using EPC7 patch-clamp amplifier (HEKA Electronik, Germany). The holding potential was maintained at −70 mV. Transmembrane currents were filtered at 3 kHz, stored and analyzed with IBM-PC computer, using homemade software.
(§3) Statistical analysis was performed with the help of Prism Graphpad software. All comparisons were made with ANOVA-test using Dunnett’s multiple comparison test and Student’s unpaired t-test at a significance level of p = 0.05. N = 5–8 cells from 3 to 4 animals for every concentration. […] The meanings of asterisks (probability levels) in figures is the following: ^∗P < 0.05, ^∗∗P < 0.01. The IC50 values for steroids inhibition of the IGly and IGABA were determined using the equation: Y = 1 – [max/(1 + (IC50/C)^n)], where max is the maximum inhibition attainable, C is the concentration of steroid, IC50 is the half-maximal inhibitory concentration and n is the slope factor (Hill coefficient).
(§4) First, the ability of steroids to affect the holding current at voltage-clamp regime was tested. […] The experiments with IGly were conducted on rat hippocampal neurons, and experiments with IGABA were conducted on rat cerebellar Purkinje cells.

[2] = target: T1, GABAA receptors (Rattus norvegicus, UniProt P18508+P62813+P63138); type: cell-based
T1 construct: Single pyramidal neurons from the hippocampal CA3 area or Purkinje cells from sagittal slices of the cerebellum were isolated; endogenous in cells; host or cells: acutely isolated Purkinje cells from cerebellar slices of Wistar rats, 11-14 days old
T1 sequence (P62813 28-455): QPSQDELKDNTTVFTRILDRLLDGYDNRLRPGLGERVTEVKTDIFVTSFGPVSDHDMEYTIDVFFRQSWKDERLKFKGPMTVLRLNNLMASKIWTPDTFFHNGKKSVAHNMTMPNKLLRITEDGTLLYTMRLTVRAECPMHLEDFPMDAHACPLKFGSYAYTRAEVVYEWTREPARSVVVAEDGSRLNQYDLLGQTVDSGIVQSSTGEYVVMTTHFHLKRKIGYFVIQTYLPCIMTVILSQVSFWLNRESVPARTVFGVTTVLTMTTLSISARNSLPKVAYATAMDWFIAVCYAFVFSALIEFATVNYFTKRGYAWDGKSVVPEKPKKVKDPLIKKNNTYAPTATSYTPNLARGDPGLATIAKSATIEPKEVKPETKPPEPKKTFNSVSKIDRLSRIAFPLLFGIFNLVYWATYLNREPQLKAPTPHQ
T1 sequence (P63138 25-474 limits assumed): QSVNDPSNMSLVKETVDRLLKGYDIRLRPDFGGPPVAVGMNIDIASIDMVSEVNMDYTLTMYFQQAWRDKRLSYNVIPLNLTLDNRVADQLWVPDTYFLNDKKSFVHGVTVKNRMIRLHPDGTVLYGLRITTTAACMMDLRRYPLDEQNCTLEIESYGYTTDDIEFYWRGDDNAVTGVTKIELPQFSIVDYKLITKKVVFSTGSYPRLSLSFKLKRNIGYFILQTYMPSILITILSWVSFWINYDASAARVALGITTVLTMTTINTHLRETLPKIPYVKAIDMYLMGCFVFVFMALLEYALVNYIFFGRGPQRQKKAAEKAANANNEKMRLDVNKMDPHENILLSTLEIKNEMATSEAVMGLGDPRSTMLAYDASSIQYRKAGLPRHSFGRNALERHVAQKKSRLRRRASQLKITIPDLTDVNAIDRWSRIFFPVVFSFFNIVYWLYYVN
T1 sequence (P18508 39-466): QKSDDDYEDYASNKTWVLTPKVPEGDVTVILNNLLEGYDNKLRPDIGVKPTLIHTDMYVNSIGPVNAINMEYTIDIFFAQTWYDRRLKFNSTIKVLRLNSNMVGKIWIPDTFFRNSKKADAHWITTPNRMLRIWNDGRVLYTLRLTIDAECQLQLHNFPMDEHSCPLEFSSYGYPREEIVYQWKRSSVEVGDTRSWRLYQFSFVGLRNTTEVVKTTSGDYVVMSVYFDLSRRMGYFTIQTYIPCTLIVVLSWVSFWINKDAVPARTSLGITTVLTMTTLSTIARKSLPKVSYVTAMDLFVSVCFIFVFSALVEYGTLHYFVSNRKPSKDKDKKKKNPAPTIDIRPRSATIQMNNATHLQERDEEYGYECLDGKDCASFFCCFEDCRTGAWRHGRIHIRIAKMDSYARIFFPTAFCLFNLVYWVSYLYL
Description: as §1, §2, §3, §4

[3] = read-out: Ipeak IC50 of IGly, inhibition of peak amplitude, 100 μM glycine
[4] = Hill fit, time constant of desensitization, 100 μM glycine
[5] = read-out: τdes IC50 of IGly, acceleration of desensitization (decrease in τdes), 100 μM glycine
[6] = time constant of desensitization, 100 μM glycine
[7] = footnote b: did not modulate IGABA up to the concentration of 10 μM, 5 μM GABA

| SMILES | τdes Hill coefficient of IGly [1] | τdes IGly (effect on time constant of desensitization) [1] [%] | τdes max (maximum inhibition attainable) of IGly [1] | τdes/τdes control of IGly ([1]; 100 μM glycine) | Ipeak/Ipeak control of IGly ([1]; 100 μM glycine) | Ipeak max (maximum inhibition attainable) of IGly ([1]; Hill fit, 100 μM glycine) | Ipeak Hill coefficient of IGly ([1]; 100 μM glycine) | IC50 [1, 3] [µM] | IC50 ([1]; read-out: τdes IC50 of IGly) [µM] | Acceleration of decay (desensitization) of IGABA [2] | Decrease in the peak amplitude of IGABA [2] | Ipeak/Ipeak control of IGABA [2] | τdes IGABA (effect in words) [2] | τdes/τdes control of IGABA [2] | τdes IGly (effect on time constant of desensitization) ([1]; 10 μM compound, 100 μM glycine) [%] | τdes max (maximum inhibition attainable) of IGly [1, 4] | IC50 [1, 5] [µM] | τdes Hill coefficient of IGly [1, 6] | τdes/τdes control of IGABA ([2]; 10 μM of steroid, 5 μM GABA) | Acceleration of decay (desensitization) of IGABA ([2]; 50 μM compound, 5 μM GABA) | other results |
| --- | --- | --- | --- | --- | --- | --- | --- | --- | --- | --- | --- | --- | --- | --- | --- | --- | --- | --- | --- | --- | --- |
| C[C@]12CC[C@H]3[C@@H](CC=C4C[C@@H](O)CC[C@@]43C)[C@@H]1CC[C@@H]2O [Compound 7, 3β,17β-Androst-5-ene-3,17-diol] | 0.56 ± 0.13 | −70 | 0.81 ± 0.09 | 0.72 ± 0.03 | 0.75 ± 0.02 | 0.52 ± 0.09 | 0.71 ± 0.16 | 16.2 ± 2.3 | 0.29 ± 0.12 | 23–45% | 14–25% | 0.77 ± 0.06 | ^bNo effect | 0.98 ± 0.02 | – | – | – | – | – | – | – |
| C[C@]12CCC(=O)C[C@@H]1CC[C@@H]1[C@@H]2CC[C@]2(C)C(=O)CC[C@@H]12 [Compound 6, 5α-Androstane-3,17-dione] | – | – | – | 0.65 ± 0.03 | 0.76 ± 0.03 | 0.51 ± 0.05 | 1.2 ± 0.35 | 16.3 ± 2.4 | – | – | – | 0.92 ± 0.04 | ^cNo effect | 0.99 ± 0.02 | −72 | 0.86 ± 0.10 | 0.26 ± 0.09 | 0.48 ± 0.10 | – | – | Modulation of IGABA (peak amplitude or rate of decay/desensitization) [2]: did not modulate; also recorded: remained inactive; also recorded: did not change |
| C[C@]12CCC(=O)C=C1CC[C@@H]1[C@@H]2CC[C@]2(C)C(=O)CC[C@@H]12 [Compound 2, Androst-4-en-3,17-dione] | – | – | – | 0.73 ± 0.06 | 0.82 ± 0.02 | 0.55 ± 0.09 | 1.1 ± 0.36 | 18.1 ± 2.9 | – | – | – | – | – | – | −84 | 0.97 ± 0.10 | 0.49 ± 0.16 | 0.60 ± 0.11 | 0.98 ± 0.02 | 23–45% | Decrease in the peak amplitude of IGABA ([2]; 50 μM compound, 5 μM GABA): 14–25%; Ipeak/Ipeak control of IGABA ([2]; 50 μM of steroid, 5 μM GABA): 0.77 ± 0.02; τdes IGABA (effect in words) [2, 7]: ^bNo effect |
| C[C@]12CC[C@H]3[C@@H](CCC4=CC(=O)CC[C@@]43C)[C@@H]1CC[C@@H]2O [Compound 1, 17β-Hydroxyandrost-4-en-3-one] | – | – | – | 0.68 ± 0.05 | 0.75 ± 0.03 | 0.58 ± 0.10 | 1.1 ± 0.32 | 19.3 ± 2.3 | – | – | – | – | – | – | −67 | 0.72 ± 0.08 | 0.13 ± 0.06 | 0.58 ± 0.20 | 0.99 ± 0.02 | 23–45% | Effect on IGly in words ([1]; 0.1 and 1 μM compound): accelerated desensitization without effect on the peak amplitude; Effect on IGly in words ([1]; 10 and 100 μM compound): acceleration of desensitization and a decrease in peak amplitude; Decrease in the peak amplitude of IGABA ([2]; 50 μM compound, 5 μM GABA): 14–25%; Ipeak/Ipeak control of IGABA ([2]; 50 μM of steroid, 5 μM GABA): 0.86 ± 0.03; τdes IGABA (effect in words) [2, 7]: ^bNo effect |
| C[C@]12CC[C@H](O)C[C@@H]1CC[C@@H]1[C@@H]2CC[C@]2(C)C(=O)CC[C@@H]12 [Compound 4, 3β-Hydroxy-5α-androstan-17-one] | 0.59 ± 0.16 | −64 | 0.70 ± 0.07 | 0.66 ± 0.05 | 0.75 ± 0.03 | 0.64 ± 0.08 | 0.97 ± 0.21 | 17.1 ± 2.3 | 0.12 ± 0.05 | 23–45% | 14–25% | 0.75 ± 0.03 | – | 0.80 ± 0.03 | – | – | – | – | – | – | τdes IGABA (effect on time constant of desensitization) [2]: −20% |
